Data: PubChem BioAssay (NCI)
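Cultured in 96-well plates, cells were exposed to test compound for 48 hours across five concentrations. TGI is the concentration that stops growth completely.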

Key:
Test in all cases: NCI-60 cell line screen, 48 h
[1] = system: K-562 leukemia
[2] = system: UO-31 renal
[3] = system: SF-539 CNS
[4] = system: XF 498 CNS
[5] = system: KM20L2 colon
[6] = system: CCRF-CEM leukemia
[7] = system: ACHN renal
[8] = system: UACC-62 melanoma
[9] = system: SK-OV-3 ovarian
[10] = system: SR leukemia
[11] = system: SNB-75 CNS
[12] = system: RXF 393 renal
[13] = system: HOP-18 NSCLC
[14] = system: SNB-19 CNS
[15] = system: HL-60(TB) leukemia
[16] = system: KM12 colon
[17] = system: UACC-257 melanoma
[18] = system: SK-MEL-5 melanoma
[19] = system: M19-MEL melanoma
[20] = system: OVCAR-3 ovarian
[21] = system: A549 NSCLC
[22] = system: IGROV1 ovarian
[23] = system: HOP-92 NSCLC
[24] = system: SF-295 CNS
[25] = system: DLD-1 colon
[26] = system: DMS 114 small cell lung
[27] = system: NCI-H460 lung
[28] = system: SN12C renal
[29] = system: LOX IMVI melanoma
[30] = system: MOLT-4 leukemia
[31] = system: DMS 273 small cell lung
[32] = system: HT29 colon
[33] = system: HCC-2998 colon
[34] = system: M14 melanoma
[35] = system: NCI-H23 lung
[36] = system: SW-620 colon
[37] = system: RPMI-8226 leukemia
[38] = system: COLO 205 colon
[39] = system: SF-268 CNS
[40] = system: OVCAR-4 ovarian
[41] = system: 786-0 renal
[42] = system: LXFL 529 NSCLC
[43] = system: U251 CNS
[44] = system: HCT-116 colon
[45] = system: OVCAR-5 ovarian
[46] = system: SK-MEL-2 melanoma
[47] = system: NCI-H522 lung
[48] = system: HOP-62 NSCLC
[49] = system: NCI-H226 lung
[50] = system: SK-MEL-28 melanoma
[51] = system: TK-10 renal
[52] = system: HCT-15 colon
[53] = system: SNB-78 CNS
[54] = system: A498 renal
[55] = system: CAKI-1 renal
[56] = system: OVCAR-8 ovarian
[57] = system: EKVX NSCLC
[58] = system: MALME-3M melanoma

CC(C)C(=O)/C=C/c1ccc(Cl)cc1
TGI [1]: 15.6 µM
TGI [2]: 24.5 µM
TGI [3]: 22.6 µM
TGI [4]: 20.5 µM
TGI [5]: > 100 µM
TGI [6]: 51.7 µM
TGI [7]: 28.5 µM
TGI [8]: 36.4 µM
TGI [9]: > 100 µM
TGI [10]: 26.2 µM
TGI [11]: 33.4 µM
TGI [12]: 35.5 µM
TGI [13]: 13.8 µM
TGI [14]: 28.1 µM
TGI [15]: 28.8 µM
TGI [16]: 23.8 µM
TGI [17]: 40.6 µM
TGI [18]: 21.7 µM
TGI [19]: 29.6 µM
TGI [20]: 28 µM
TGI [21]: 59.7 µM
TGI [22]: 46.3 µM
TGI [23]: 31.6 µM
TGI [24]: 27.8 µM
TGI [25]: 32.2 µM
TGI [26]: 39.8 µM
TGI [27]: 42.3 µM
TGI [28]: 21.7 µM
TGI [29]: 22.2 µM
TGI [30]: 55.9 µM
TGI [31]: 14 µM
TGI [32]: 31.7 µM
TGI [33]: 31.9 µM
TGI [34]: 33 µM
TGI [35]: 44.7 µM
TGI [36]: 16.3 µM
TGI [37]: 67.2 µM
TGI [38]: 59.9 µM
TGI [39]: 67.5 µM
TGI [40]: 52.3 µM
TGI [41]: 23.1 µM
TGI [42]: 30.4 µM
TGI [43]: 25.5 µM
TGI [44]: 11.5 µM
TGI [45]: 35.4 µM
TGI [46]: 35.4 µM
TGI [47]: 30.4 µM

CC1=C(c2cc(C(=O)Nc3ccc(Cl)c(Cl)c3)nc(N)n2)Sc2ccccc2N1
TGI [1]: > 100 µM
TGI [2]: > 100 µM
TGI [3]: > 100 µM
TGI [4]: > 100 µM
TGI [5]: > 100 µM
TGI [6]: > 100 µM
TGI [7]: > 100 µM
TGI [48]: > 100 µM
TGI [8]: > 100 µM
TGI [9]: > 100 µM
TGI [49]: > 100 µM
TGI [10]: > 100 µM
TGI [50]: > 100 µM
TGI [51]: > 100 µM
TGI [52]: > 100 µM
TGI [53]: > 100 µM
TGI [11]: > 100 µM
TGI [12]: > 100 µM
TGI [54]: > 100 µM
TGI [13]: > 100 µM
TGI [14]: > 100 µM
TGI [15]: > 100 µM
TGI [16]: > 100 µM
TGI [17]: > 100 µM
TGI [18]: > 100 µM
TGI [19]: > 100 µM
TGI [20]: > 100 µM
TGI [55]: > 100 µM
TGI [21]: > 100 µM
TGI [22]: > 100 µM
TGI [23]: > 100 µM
TGI [56]: > 100 µM
TGI [24]: > 100 µM
TGI [25]: > 100 µM
TGI [26]: > 100 µM
TGI [57]: > 100 µM
TGI [27]: > 100 µM
TGI [28]: > 100 µM
TGI [29]: > 100 µM
TGI [30]: > 100 µM
TGI [31]: > 100 µM
TGI [32]: > 100 µM
TGI [33]: > 100 µM
TGI [34]: > 100 µM
TGI [35]: > 100 µM
TGI [36]: > 100 µM
TGI [37]: > 100 µM
TGI [38]: > 100 µM
TGI [58]: > 100 µM
TGI [39]: > 100 µM
TGI [40]: > 100 µM
TGI [41]: > 100 µM
TGI [42]: > 100 µM
TGI [43]: > 100 µM
TGI [44]: > 100 µM
TGI [45]: > 100 µM
TGI [46]: > 100 µM
TGI [47]: > 100 µM
